Results: US6984660B2, “P-thienylbenzylamides as agonists of angiotensin-(1-7) receptors, and methods of their preparation and use” (Aventis Pharma Deutschland GmbH, priority 2001, dated 2006)

What was measured:
[1] = test system: primarily cultivated endothelial cells derived from bovine aortas; assay: Test 2: functional assay, stimulation of intracellular cGMP production in endothelial cells; assay type: cell-based; conditions: for EC50: Bos taurus, Endothelial cell, production of intracellular cGMP, marker for NO production and release, radioimmunoassay; for stimulatory effect on cGMP after preincubation with a selective angiotensin-(1-7) receptor antagonist: preincubation with [D-Ala^7]-angiotensin-(1-7); for effect on the production of cGMP after preincubation with an AT1 receptor antagonist: preincubation with angiotensin II AT1 subtype antagonist, such as EXP3174; for effect on the production of cGMP after preincubation with an AT2 receptor antagonist: preincubation with angiotensin II AT2 subtype antagonist, such as PD 123,319
Description: The stimulatory effect of the compounds of formula (I) on the production of intracellular cGMP, which is a marker for the production and release of NO in endothelial cells, was measured on primarily cultivated endothelial cells derived from bovine aortas, as described, for example, in J. Pharmacol. Exp. Ther. (1992) 262:729-733, herein incorporated by reference.
After having been enzymatically digested (dispase II; Boehringer, Mannheim) from the bovine aorta, the endothelial cells were taken up in culture medium (Dulbecco's modified Eagle's Ham's F 12 medium 1:1 containing penicillin (10 U/L), streptomycin (10 ug/L), L-glutamine (1 mmol/L), glutathione and L-(+)-ascorbic acid (in each case 5 mg/L) and heat-inactivated fetal calf serum (20%)), washed once (centrifugation at 170×g, 10 min) and resuspended in culture medium. This cell suspension was seeded in 6-well plates (Nunc Intermed, Wiesbaden) (˜250 μg of protein or […] per well), with the wells then being filled with culture medium and the plates kept at 37° C. in an incubator which was moistened and gassed with 95% O2-5% CO2.
After confluence had been reached (6-8 days after seeding), the culture medium was removed and the cell monolayer was washed twice with warm HEPES/Tyrode's solution. After that, the cells were preincubated, at 37° C. for 15 min, in HEPES/Tyrode's solution containing IBMX (3-isobutyl-1-methylxanthine, 10^−4 mol/L, Serva, Heidelberg). The incubation was started by adding SOD (bovine erythrocyte superoxide dismutase, 3×10^−7 mol/L, Serva, Heidelberg) and the test substances of formula (I) at the given concentrations. After the appropriate incubation time, the incubation medium was aspirated and the cells which remained behind were immediately extracted in 1 N formic acid/acetone (v/v, 15:85) and scraped off. The resulting suspension was ultrasonicated (10 sec) and then centrifuged down (3000×g, 10 min). For the purpose of determining cGMP by means of radioimmunoassay (New England Nuclear, Boston, Mass.), the supernatant was lyophilized and the lyophilisate taken up in sodium acetate buffer (0.05 mol/L; pH 6.2). The content (pmol) of intracellular cGMP was related to mg of cell protein.

Structure (SMILES) | melting point [°C] | also measured
CCNC(=O)NS(=O)(=O)c1sc(CC(C)C)cc1-c1ccc(CN(C(C)=O)[C@H](C(=O)O)C(C)C)cc1 [Example 11, 2-N-Acetyl-2-N-[4-[2-(ethylaminocarbonylsulfonamido)-5-isobutyl-3-thienyl]benzyl]amino-3-methyl-L-butyric acid] | 136 | 
CCNC(=O)NS(=O)(=O)c1sc(CC(C)C)cc1-c1ccc(CN(C(C)=O)[C@H](C(=O)OC)C(C)C)cc1 [Example 9, Methyl 2-N-acetyl-2-N-[4-[2-(ethylaminocarbonylsulfonamido)-5-isobutyl-3-thienyl]benzyl]amino-3-methyl-L-butyrate] | 130 | EC50 [1]: 40 nM; stimulatory effect on cGMP after preincubation with a selective angiotensin-(1-7) receptor antagonist [1]: inhibited; effect on the production of cGMP after preincubation with an AT1 receptor antagonist [1]: not influenced; effect on the production of cGMP after preincubation with an AT2 receptor antagonist [1]: not influenced
CCNC(=O)NS(=O)(=O)c1sc(CC(C)C)cc1-c1ccc(CN(C(=O)c2ccccc2)[C@H](C(=O)O)C(C)C)cc1 [Example 6, 2-N-Benzoyl-2-N-[4-[2-(ethylaminocarbonylsulfonamido)-5-isobutyl-3-thienyl]benzyl]amino-3-methyl-L-butyric acid] | 149 | 
CCNC(=O)NS(=O)(=O)c1sc(CC(C)C)cc1-c1ccc(CN(C(=O)c2ccccc2)[C@H](C(=O)OC)C(C)C)cc1 [Example 4, Methyl 2-N-benzoyl-2-N-[4-[2-(ethylaminocarbonylsulfonamido)-5-isobutyl-3-thienyl]benzyl]amino-3-methyl-L-butyrate] | 65 | EC50 [1]: 600 nM; stimulatory effect on cGMP after preincubation with a selective angiotensin-(1-7) receptor antagonist [1]: inhibited; effect on the production of cGMP after preincubation with an AT1 receptor antagonist [1]: not influenced; effect on the production of cGMP after preincubation with an AT2 receptor antagonist [1]: not influenced
CCNC(=O)NS(=O)(=O)c1sc(CC(C)C)cc1-c1ccc(CN(C(=O)c2ccccc2)[C@H](C(=O)OCC)C(C)C)cc1 [Example 5, Ethyl 2-N-benzoyl-2-N-[4-[2-(ethylaminocarbonylsulfonamido)-5-isobutyl-3-thienyl]benzyl]amino-3-methyl-L-butyrate] | 88 to 90 | 
CCNC(=O)NS(=O)(=O)c1sc(CC(C)C)cc1-c1ccc(CN(C(C)=O)[C@H](C(=O)OCC)C(C)C)cc1 [Example 10, Ethyl 2-N-acetyl-2-N-[4-[2-(ethylaminocarbonylsulfonamido)-5-isobutyl-3-thienyl]benzyl]amino-3-methyl-L-butyrate] | 81 | 

Now from value to molecule, other results behind:

melting point [°C] | Structure (SMILES) | also measured
93 | CCCCOC(=O)NS(=O)(=O)c1sc(CC(C)C)cc1-c1ccc(CN(C(=O)c2ccco2)[C@H](C(=O)O)C(C)C)cc1 [Example 13, 2-N-(2-Furanoyl)-2-N-[4-[2-(n-butyloxycarbonylsulfonamido)-5-isobutyl-3-thienyl]benzyl]amino-3-methyl-L-butyric acid] | 
66 | CCCCOC(=O)NS(=O)(=O)c1sc(CC(C)C)cc1-c1ccc(CN(C(=O)CCC(=O)O)[C@H](C(=O)O)C(C)C)cc1 [Example 17, 2-N-(3-Carboxypropionyl)-2-N-[4-[2-(n-butyloxycarbonylsulfonamido)-5-isobutyl-3-thienyl]benzyl]amino-3-methyl-L-butyric acid] | 
158 | CNC(=O)NS(=O)(=O)c1sc(CC(C)C)cc1-c1ccc(CN(C(=O)CCC(=O)OC)[C@H](C(=O)OC)C(C)C)cc1 [Example 18] | 
134 | CNC(=O)NS(=O)(=O)c1sc(CC(C)C)cc1-c1ccc(CN(C(=O)c2ccco2)[C@H](C(=O)O)C(C)C)cc1 [Example 15, 2-N-(2-Furanoyl)-2-N-[4-[2-(methylaminocarbonylsulfonamido)-5-isobutyl-3-thienyl]benzyl]amino-3-methyl-L-butyric acid] | 
84 | CNC(=O)NS(=O)(=O)c1sc(CC(C)C)cc1-c1ccc(CN(C(=O)c2ccco2)[C@H](C(=O)OC)C(C)C)cc1 [Example 14, Methyl 2-N-(2-furanoyl)-2-N-[4-[2-(methylaminocarbonylsulfonamido)-5-isobutyl-3-thienyl]benzyl]amino-3-methyl-L-butyrate] | 
